Reference: patent US12415830B2, “Steroid compound, and use thereof and preparation method therefor” (Chengdu Kanghong Pharmaceutical Co Ltd, priority 2019, dated 2025)
Like-named read-outs stand apart in the source and are kept apart here.

What was measured:
[1] = biological target: T1, GABAA1 (α1β2γ2) receptor (Homo sapiens, UniProt P14867+P47870); experiment: Patch-clamp electrophysiology on recombinant GABAA1 receptor in HEK293 cells, with 3 μM GABA; format: cell-based; conditions: for Emax at 0.1 µM: 0.1 μM compound together with 3 μmol GABA; for Emax at 0.1 µM / Emax at 1 µM: read-out: potency: ratio of the peak current on the GABAA1 receptor to the peak current in 100 μmol GABA; for Emax at 1 µM: 1 μM compound together with 3 μmol GABA
T1 construct: expressed in transfected cells
T1 sequence (P14867 28-456): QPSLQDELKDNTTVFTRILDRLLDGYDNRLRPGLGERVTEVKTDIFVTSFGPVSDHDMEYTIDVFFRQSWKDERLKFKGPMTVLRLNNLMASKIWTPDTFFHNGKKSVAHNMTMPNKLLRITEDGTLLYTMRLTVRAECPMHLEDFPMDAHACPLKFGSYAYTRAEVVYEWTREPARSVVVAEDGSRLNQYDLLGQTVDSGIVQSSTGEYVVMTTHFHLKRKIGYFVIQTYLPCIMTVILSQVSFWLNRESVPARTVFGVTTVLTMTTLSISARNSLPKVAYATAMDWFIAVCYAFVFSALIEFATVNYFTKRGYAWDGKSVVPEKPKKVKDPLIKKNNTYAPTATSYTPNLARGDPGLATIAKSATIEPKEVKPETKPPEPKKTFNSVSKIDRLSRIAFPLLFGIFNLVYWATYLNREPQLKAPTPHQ
T1 sequence (P47870 26-512): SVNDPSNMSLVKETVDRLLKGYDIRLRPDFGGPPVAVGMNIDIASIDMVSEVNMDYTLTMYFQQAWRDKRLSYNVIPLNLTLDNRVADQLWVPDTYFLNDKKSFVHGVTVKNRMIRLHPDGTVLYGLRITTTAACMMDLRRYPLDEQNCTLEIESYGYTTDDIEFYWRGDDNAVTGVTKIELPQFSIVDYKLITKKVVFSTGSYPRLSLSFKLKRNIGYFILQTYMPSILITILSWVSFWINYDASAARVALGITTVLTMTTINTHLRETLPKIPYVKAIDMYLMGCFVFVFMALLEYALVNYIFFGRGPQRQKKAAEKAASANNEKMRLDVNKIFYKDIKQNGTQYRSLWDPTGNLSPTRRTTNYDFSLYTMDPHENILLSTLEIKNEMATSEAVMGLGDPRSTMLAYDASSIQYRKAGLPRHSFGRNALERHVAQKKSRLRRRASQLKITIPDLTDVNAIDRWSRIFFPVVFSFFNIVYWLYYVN
T1 sequence (P18507 40-475 partner): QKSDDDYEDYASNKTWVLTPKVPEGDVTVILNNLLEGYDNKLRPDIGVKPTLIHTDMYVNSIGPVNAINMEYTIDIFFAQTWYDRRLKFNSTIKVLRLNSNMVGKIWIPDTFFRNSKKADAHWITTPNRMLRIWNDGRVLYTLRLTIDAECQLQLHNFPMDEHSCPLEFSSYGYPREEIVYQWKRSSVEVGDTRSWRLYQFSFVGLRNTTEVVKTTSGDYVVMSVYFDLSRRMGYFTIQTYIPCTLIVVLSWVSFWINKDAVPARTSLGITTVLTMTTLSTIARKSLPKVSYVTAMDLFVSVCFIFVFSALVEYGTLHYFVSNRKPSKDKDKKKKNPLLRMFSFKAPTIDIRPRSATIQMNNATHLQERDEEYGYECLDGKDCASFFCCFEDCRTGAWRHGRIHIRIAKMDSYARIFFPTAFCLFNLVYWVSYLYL
Protocol: (§1) The present invention applies the two subunits of the recombinant GABAA receptor: α1β2γ2 and α4β3δ to evaluate the potency of the exemplary compounds in vitro by patch-clamp electrophysiology.
(§2) Extracellular fluid: 140 mM NaCl, 5 mM CsCl, 2 mM CaCl2·2H2O, 1 mM MgCl2·6H2O, 5 mM HEPES, 10 mM D-Glucose, pH=7.4 (NaOH).
(§3) Intracellular fluid: 130 mM CsCl, 0.1 mM CaCl2·H2O, 2 mM MgCl2·6H2O, 1.1 mM EGTA, 5 mM Na2-ATP, 10 mM HEPES, pH=7.2 (CsOH).
The HEK293 cells line stably expressing GABAA (α1β2γ2) receptors was cultured in Dulbecco's Modified Eagle Medium (DMEM) supplemented with 10% fetal bovine serum, 800 μg/mL G418, 200 μg/mL Hygromycin B and 100 μg/mL Zeocin. Cells were grown in a humidified incubator at 37° C. with 5% carbon dioxide.
Before manual patch clamp test, the cells were detached using 0.25%-Trypsin-EDTA solution. Then 8×10^3 cells were plated onto coverslips, and cultured in a 24-well plate (final medium volume: 500 μL) and tested after 18 hours by patch clamp.
(§4) Glass pipette (BF 150-86-10, Sutter Instruments) was pulled using a micropipette puller (P97, Sutter Instruments). The glass pipette was manipulated using a micro-manipulator (MP285, Sutter Instruments) under the microscope (IX71, Olympus). After touching the cell, a slight suction was applied to achieve high seal resistance (GQ). Fast capacitance (in pF) compensation was made after achieving high seal, and the membrane was broken. Cell capacitance (in pF) compensation was made from whole-cell capacitance compensation after the whole cell mode was achieved. No leak subtraction was made.
(§5) The test and control solutions flowed into a recording chamber mounted on the stage of an inverted microscope via a gravity-fed solution delivery system. During the experiment, solutions were withdrawn from the recording chamber by vacuum aspiration. Each concentration was tested at multiple times. All tests were performed at room temperature.
(§6) Whole cell model recorded GABAA1 receptors current experimental protocol was indicated as follows: When sealing, cell was at a holding potential of −70 mV, with gap-free mode to record the peak current. The cell would be applied with 3 μM GABA to active current. After the test articles application for 30 s, each concentration of test articles was applied with 3 μM GABA followed by 2 minutes washout using extracellular solution. Finally, 100 μM GABA was used as a positive control. The data were collected by EPC-10 amplifier and stored in PatchMaster (HEKA) software.
(§7) The following criteria are used to determine whether the data is acceptable: • (1) Electrode resistance <5MΩ • (2) Seal resistance >1GΩ • (3) The start of access resistance <15 MΩ • (4) The end of access resistance <15 MΩ • (5) No obvious spontaneous current decay. • (6) No obvious current leakage when the membrane potential is-70 mv. 56.6 Data Analysis
In the detection of GABAA1, the currents of 3 μM GABA and different concentrations of test compounds were respectively normalized to the current of 100 μM GABA
[formula] and then the activation rate corresponding to each concentration was calculated.
[formula] and then the activation rate corresponding to each concentration was calculated. Means, Standard Deviation and Standard Error were calculated for each test group. EC50 value was calculated using nonlinear regression: Y=Bottom+(Top−Bottom)/(1+10^((Log EC50−X)×HillSlope))
To fit data to the concentration-response, EC50 was the concentration giving a half-maximum effect and Hillslope was the Hill coefficient. Curve-fitting and EC50 calculations were performed using Graphpad5.0 software.
Emax is defined as the ratio of the peak current generated on the GABAA1 receptor to the peak current generated only in 100 μmol of GABA and the ratio is multiplied by 100%. The peak current generated on the GABAA1 receptor is that the exemplary compounds act on the GABAA1 receptor together with 3 μmol GABA.

[2] = biological target: T2, GABAA4 (α4β3δ) receptor (Homo sapiens, UniProt P28472+P48169); experiment: Patch-clamp electrophysiology, compound alone or with 10 nM GABA (Table 3); format: cell-based; conditions: for Emax: relative to peak current in GABA only
T2 construct: expressed in transfected cells; host or cells: HEK293 (transient transfection, plasmids 1:1:1)
T2 sequence (P48169 36-554): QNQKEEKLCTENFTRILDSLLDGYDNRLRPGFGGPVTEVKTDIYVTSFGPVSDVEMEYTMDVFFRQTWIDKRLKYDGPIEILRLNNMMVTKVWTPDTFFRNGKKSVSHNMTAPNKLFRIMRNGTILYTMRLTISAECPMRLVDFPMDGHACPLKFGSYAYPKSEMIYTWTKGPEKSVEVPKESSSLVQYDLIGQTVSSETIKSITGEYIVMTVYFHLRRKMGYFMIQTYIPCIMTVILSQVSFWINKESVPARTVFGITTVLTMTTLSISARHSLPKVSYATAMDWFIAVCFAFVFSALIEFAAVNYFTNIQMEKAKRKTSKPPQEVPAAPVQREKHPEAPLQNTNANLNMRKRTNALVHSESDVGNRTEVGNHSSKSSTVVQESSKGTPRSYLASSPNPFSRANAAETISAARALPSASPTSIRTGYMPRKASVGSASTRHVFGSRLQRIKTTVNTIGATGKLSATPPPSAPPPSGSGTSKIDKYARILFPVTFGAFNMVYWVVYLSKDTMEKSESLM
T2 sequence (P28472 26-473): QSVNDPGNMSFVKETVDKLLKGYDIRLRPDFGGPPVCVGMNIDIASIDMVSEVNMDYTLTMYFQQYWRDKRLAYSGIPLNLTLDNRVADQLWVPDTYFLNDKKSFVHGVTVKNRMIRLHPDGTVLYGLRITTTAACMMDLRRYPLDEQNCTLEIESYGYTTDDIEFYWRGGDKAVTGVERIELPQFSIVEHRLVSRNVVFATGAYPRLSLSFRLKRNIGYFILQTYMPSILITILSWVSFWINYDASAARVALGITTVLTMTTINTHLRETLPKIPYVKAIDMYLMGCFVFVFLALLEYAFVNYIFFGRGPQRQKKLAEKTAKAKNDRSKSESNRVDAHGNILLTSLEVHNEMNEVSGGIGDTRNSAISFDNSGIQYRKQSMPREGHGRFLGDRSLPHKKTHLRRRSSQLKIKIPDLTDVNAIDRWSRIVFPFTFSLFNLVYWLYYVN
T2 sequence (O14764 25-452 partner): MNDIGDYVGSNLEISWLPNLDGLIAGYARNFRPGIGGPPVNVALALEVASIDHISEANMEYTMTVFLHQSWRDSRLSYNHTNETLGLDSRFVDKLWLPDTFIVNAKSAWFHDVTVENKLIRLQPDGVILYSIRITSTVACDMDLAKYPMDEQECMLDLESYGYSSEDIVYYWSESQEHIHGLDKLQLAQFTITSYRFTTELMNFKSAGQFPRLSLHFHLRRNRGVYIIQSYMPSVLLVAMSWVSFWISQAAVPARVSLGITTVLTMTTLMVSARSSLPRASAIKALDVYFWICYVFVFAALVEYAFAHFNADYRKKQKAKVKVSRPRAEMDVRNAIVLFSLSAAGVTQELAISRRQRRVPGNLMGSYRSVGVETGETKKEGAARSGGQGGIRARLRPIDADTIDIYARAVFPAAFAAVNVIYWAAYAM
Protocol: as §1, §2, §3
HEK293 cell line was cultured in DMEM containing 10% fetal bovine serum and 5% carbon dioxide at 37° C.
Cell passage: The old medium was removed, and the cells were washed once with PBS. Then 1 mL 0.25%-Trypsin-EDTA solution was added to digest cells. The culture dish was incubated at 37° C. in pre-warmed incubator for 0.5 minutes. As soon as cells were detached, about 5 mL 37° C. pre-warmed complete medium was added. Cell aggregates were dissociated by gentle pipetting. The cell suspension was transferred into a sterile centrifuge tube and then the cell suspension was be spun at approximately 1000 rpm for 5 minutes. The cells were amplified or maintained by seeding 2.5×10^5 cells in a 6 cm dish (final medium volume: 5 mL). For transfection, 8×10^3 cells were plated onto coverslips, and cultured in a 24-well plate (final medium volume: […]).
Transfection: Second day, the transfection of GABAA4 (α4, β3, δ plasmid ratio 1:1:1) was performed. The X-tremeGENE HP DAN Transfection Reagents kit were used. The ratio of the plasmid and transfection reagent was 1 μg: 2 μL. The amount of plasmid in the 24-well plate was 0.5 μg per well, and the transfection reagent was 1 μL. The following specific steps were taken for preparing the 12 wells: The 600 μL Opti-MEM was added to a sterile centrifuge tube along with 6 μg of plasmid and was allowed to mix well; Then, the 12 μL of transfection reagent was added, mixed well following 15 min incubation at room temperature. The transfection complex was then inoculated into the cell, 50 μL per well, and the transfection complex was lightly stirred and mixed.
This mixture was changed on the third day, and the patch-clamp was performed on the fourth day.
as §4, §5
as §6, with “GABAA4” for “GABAA1”, “10 nM” for “3 μM”, “10” for “100”
as §7, with “56.6 Data Analysis” left out

[3] = with 10 nM GABA, read-out: EC50 (with 10 nM GABA)
[4] = with 10 nM GABA, read-out: Emax (with 10 nM GABA)
[5] = without GABA, read-out: EC50 (without GABA)
[6] = without GABA, read-out: Emax (without GABA)

SMILES | Emax at 0.1 µM ([1]; HEK293) [%] | Emax at 1 µM ([1]; HEK293) [%] | Emax ([1]; HEK293, together with 3 μmol GABA, relative to peak current in 100 μmol GABA) [%] | EC50 ([1]; together with 3 μmol GABA) [nM] | EC50 [2, 3] [nM] | Emax [2, 4] [%] | EC50 [2, 5] [nM] | Emax [2, 6] [%] | EC50 ([2]; EC50 (with 10 nM GABA), with 10 nM GABA) [nM] | EC50 ([2]; EC50 (without GABA), without GABA) [nM]
C[C@@]1(O)CC[C@@]2(C)[C@@H](CC[C@@H]3[C@@H]2CC[C@]2(C)[C@@H](C(=O)COc4noc5ccccc45)CCC[C@@H]32)C1 [KH025] | 0 to 20 | 60 to 80 | 93.7 | 620 | 572 | 92.5 | 947 | 84.6 | – | –
CC(=O)C1CCCC2[C@@H]3CC[C@H]4C[C@H](O)CC[C@]4(C)[C@H]3CC[C@]12C (stereo partly drawn) [KH001] | 20 to 40 | 60 to 80 | – | – | – | 91.7 | – | 103 | 132 | 173
C[C@@]1(O)CC[C@@]2(C)[C@@H](CC[C@@H]3[C@@H]2CC[C@]2(C)[C@@H](C(=O)Cn4nnc(-c5ccccc5)n4)CCC[C@@H]32)C1 [KH039] | 0 to 20 | 60 to 80 | – | – | > 4000 | 125 | > 4000 | 121 | – | –
C[C@]12CC[C@@H](O)C[C@@H]1CC[C@@H]1[C@@H]2CC[C@]2(C)[C@@H](C(=O)Cn3ccc4ccccc43)CCC[C@@H]12 [KH009] | 20 to 40 | > 80 | – | – | – | – | – | – | – | –
C[C@@]1(O)CC[C@@]2(C)[C@@H](CC[C@@H]3[C@@H]2CC[C@]2(C)[C@@H](C(=O)Cn4cnnn4)CCC[C@@H]32)C1 [KH023] | 0 to 20 | 0 to 20 | – | – | – | – | – | – | – | –
C[C@@]1(O)CC[C@@]2(C)[C@@H](CC[C@@H]3[C@@H]2CC[C@]2(C)[C@@H](C(=O)COc4nc5ccccc5o4)CCC[C@@H]32)C1 [KH028] | 0 to 20 | 0 to 20 | – | – | – | – | – | – | – | –
C[C@]12CC[C@@H](O)C[C@@H]1CC[C@@H]1[C@@H]2CC[C@]2(C)[C@@H](C(=O)CSc3cccs3)CCC[C@@H]12 [KH016] | 0 to 20 | 40 to 60 | – | – | – | – | – | – | – | –
CC(=O)[C@H]1CCC[C@H]2[C@@H]3CC[C@H]4C[C@](C)(O)CC[C@]4(C)[C@H]3CC[C@]12C [KH021] | 0 to 20 | 0 to 20 | – | – | – | – | – | – | – | –
